Assay results as given in PubChem BioAssay (NCI).
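GI50 is the concentration that inhibits growth by half. TGI marks complete inhibition of growth.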

Experiments:
Assay in all cases: NCI-60 cell line screen, 384-well format
NCI/ADR-RES ovarian = tested on: NCI/ADR-RES ovarian
RPMI-8226 leukemia = tested on: RPMI-8226 leukemia
BT-549 breast = tested on: BT-549 breast
786-0 renal = tested on: 786-0 renal
HT29 colon = tested on: HT29 colon
SK-MEL-5 melanoma = tested on: SK-MEL-5 melanoma
A498 renal = tested on: A498 renal
NCI-H522 lung = tested on: NCI-H522 lung
UO-31 renal = tested on: UO-31 renal
KM12 colon = tested on: KM12 colon
SK-OV-3 ovarian = tested on: SK-OV-3 ovarian
NCI-H460 NSCLC = tested on: NCI-H460 NSCLC
MDA-MB-435 melanoma = tested on: MDA-MB-435 melanoma
SNB-75 CNS = tested on: SNB-75 CNS
HCT-15 colon = tested on: HCT-15 colon
NCI-H226 lung = tested on: NCI-H226 lung
T-47D breast = tested on: T-47D breast
CAKI-1 renal = tested on: CAKI-1 renal
OVCAR-8 ovarian = tested on: OVCAR-8 ovarian
TK-10 renal = tested on: TK-10 renal
RXF 393 renal = tested on: RXF 393 renal
ACHN renal = tested on: ACHN renal
HOP-62 NSCLC = tested on: HOP-62 NSCLC
CCRF-CEM leukemia = tested on: CCRF-CEM leukemia
EKVX NSCLC = tested on: EKVX NSCLC
HS 578T breast = tested on: HS 578T breast
IGROV1 ovarian = tested on: IGROV1 ovarian
MDA-MB-468 breast = tested on: MDA-MB-468 breast
PC-3 prostate = tested on: PC-3 prostate

Q: `COc1ccc2c(c[n+](C)c3c4cc5c(cc4ccc23)OCO5)c1OC` was tested. Which GI50 (NCI/ADR-RES ovarian) did it give?
A: The GI50 was 1.02 µM.

Q: What about the TGI (NCI/ADR-RES ovarian) of the same molecule?
A: The TGI was 2.59 µM.

Q: What about the GI50 (RPMI-8226 leukemia) of the same molecule?
A: Its GI50 is 0.44 µM.

Q: And the TGI (RPMI-8226 leukemia)?
A: Its TGI is 1.46 µM.

Q: And the GI50 (BT-549 breast)?
A: The GI50 was 0.68 µM.

Q: And the TGI (BT-549 breast)?
A: Its TGI is 1.94 µM.

Q: What about the GI50 (786-0 renal) of the same molecule?
A: The GI50 was 1.34 µM.

Q: What about the TGI (786-0 renal) of the same molecule?
A: The TGI was 2.63 µM.

Q: And the GI50 (HT29 colon)?
A: The GI50 was 1.68 µM.

Q: What about the TGI (HT29 colon) of the same molecule?
A: Its TGI is 3.05 µM.

Q: What about the GI50 (SK-MEL-5 melanoma) of the same molecule?
A: The GI50 was 0.72 µM.

Q: What about the TGI (SK-MEL-5 melanoma) of the same molecule?
A: The TGI was 2.04 µM.

Q: What about the GI50 (A498 renal) of the same molecule?
A: The GI50 was 1.87 µM.

Q: What about the TGI (A498 renal) of the same molecule?
A: The TGI was 3.39 µM.

Q: And the GI50 (NCI-H522 lung)?
A: Its GI50 is 1.44 µM.

Q: What about the TGI (NCI-H522 lung) of the same molecule?
A: Its TGI is 2.75 µM.

Q: And the GI50 (UO-31 renal)?
A: Its GI50 is 1.4 µM.

Q: And the TGI (UO-31 renal)?
A: Its TGI is 2.7 µM.

Q: What about the GI50 (KM12 colon) of the same molecule?
A: The GI50 was 1.47 µM.

Q: And the TGI (KM12 colon)?
A: The TGI was 2.8 µM.

Q: What about the GI50 (SK-OV-3 ovarian) of the same molecule?
A: Its GI50 is 1.71 µM.

Q: What about the TGI (SK-OV-3 ovarian) of the same molecule?
A: The TGI was 3.13 µM.

Q: What about the GI50 (NCI-H460 NSCLC) of the same molecule?
A: Its GI50 is 1.52 µM.

Q: And the TGI (NCI-H460 NSCLC)?
A: Its TGI is 2.85 µM.

Q: And the GI50 (MDA-MB-435 melanoma)?
A: The GI50 was 1.63 µM.

Q: What about the TGI (MDA-MB-435 melanoma) of the same molecule?
A: Its TGI is 2.99 µM.

Q: And the GI50 (SNB-75 CNS)?
A: The GI50 was 1.64 µM.

Q: And the TGI (SNB-75 CNS)?
A: Its TGI is 3 µM.

Q: And the GI50 (HCT-15 colon)?
A: The GI50 was 0.825 µM.

Q: And the TGI (HCT-15 colon)?
A: The TGI was 2.07 µM.

Q: What about the GI50 (NCI-H226 lung) of the same molecule?
A: Its GI50 is 1.83 µM.

Q: What about the TGI (NCI-H226 lung) of the same molecule?
A: The TGI was 3.22 µM.

Q: And the GI50 (T-47D breast)?
A: Its GI50 is 1.63 µM.

Q: And the TGI (T-47D breast)?
A: The TGI was 2.99 µM.

Q: What about the GI50 (CAKI-1 renal) of the same molecule?
A: The GI50 was 1.27 µM.

Q: And the TGI (CAKI-1 renal)?
A: The TGI was 2.56 µM.

Q: And the GI50 (OVCAR-8 ovarian)?
A: Its GI50 is 0.395 µM.

Q: And the TGI (OVCAR-8 ovarian)?
A: The TGI was 1.43 µM.

Q: And the GI50 (TK-10 renal)?
A: The GI50 was 1.42 µM.

Q: What about the TGI (TK-10 renal) of the same molecule?
A: The TGI was 2.73 µM.

Q: What about the GI50 (RXF 393 renal) of the same molecule?
A: The GI50 was 1.57 µM.

Q: And the TGI (RXF 393 renal)?
A: Its TGI is 2.94 µM.

Q: What about the GI50 (ACHN renal) of the same molecule?
A: The GI50 was 1.82 µM.

Q: And the TGI (ACHN renal)?
A: Its TGI is 3.21 µM.

Q: What about the GI50 (HOP-62 NSCLC) of the same molecule?
A: The GI50 was 1.06 µM.

Q: And the TGI (HOP-62 NSCLC)?
A: Its TGI is 2.25 µM.

Q: What about the GI50 (CCRF-CEM leukemia) of the same molecule?
A: Its GI50 is 0.146 µM.

Q: And the TGI (CCRF-CEM leukemia)?
A: The TGI was 0.278 µM.

Q: What about the GI50 (EKVX NSCLC) of the same molecule?
A: Its GI50 is 1.45 µM.

Q: What about the TGI (EKVX NSCLC) of the same molecule?
A: Its TGI is 2.76 µM.

Q: What about the GI50 (HS 578T breast) of the same molecule?
A: The GI50 was 1.55 µM.

Q: What about the TGI (HS 578T breast) of the same molecule?
A: The TGI was 2.89 µM.

Q: What about the GI50 (IGROV1 ovarian) of the same molecule?
A: Its GI50 is 1.62 µM.

Q: And the TGI (IGROV1 ovarian)?
A: Its TGI is 2.97 µM.

Q: What about the GI50 (MDA-MB-468 breast) of the same molecule?
A: Its GI50 is 0.365 µM.

Q: And the TGI (MDA-MB-468 breast)?
A: The TGI was 1.36 µM.

Q: What about the GI50 (PC-3 prostate) of the same molecule?
A: Its GI50 is 1.19 µM.

Q: And the TGI (PC-3 prostate)?
A: Its TGI is 2.42 µM.
